The values below come from US11827866B2 (priority 2007, dated 2023).

SMILES strings stand for the structures.

For one assay, the target named is subtilisin (Bacillus licheniformis, UniProt P00780). Particulars: literature statement, Biochem. Biophys. Res. Com. 176, 1991; cited from earlier work.
Sequence of subtilisin (P00780 106-379): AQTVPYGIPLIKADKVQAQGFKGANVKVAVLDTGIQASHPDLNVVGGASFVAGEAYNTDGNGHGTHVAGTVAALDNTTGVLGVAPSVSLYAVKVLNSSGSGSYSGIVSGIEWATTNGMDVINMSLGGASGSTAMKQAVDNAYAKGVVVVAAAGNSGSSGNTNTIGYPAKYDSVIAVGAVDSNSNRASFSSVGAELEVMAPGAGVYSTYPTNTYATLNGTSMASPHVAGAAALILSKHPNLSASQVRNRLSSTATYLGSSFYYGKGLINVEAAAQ
Regarding `OB(O)c1cc(Cl)cc(Cl)c1` [3,5-dichlorophenylboronic acid], the “capacity as subtilisin inhibitor” value is “particularly effective”.

Consider `CB(O)O` [methylboronic acid], for which the “capacity as subtilisin inhibitor” value is on record as “poorest inhibitor”.

For a further assay, the system named is protease. In kind it is biochemical. The following applies: pH 9.
`[Cl][Al]([Cl])[Cl]` [Aluminium Chloride]: the “Residual activity (4 weeks at 40° C.)” value came to 16%.

With `Cl.N` [Armonium Chloride], the “Residual activity (4 weeks at 40° C.)” value came to 49%.

For the compound `N.O=[N+]([O-])O` [Armonium Nitrate], the “Residual activity (4 weeks at 40° C.)” value is recorded as 41%.

For `N.N.O=S(=O)(O)O` [Armonium Sulfate], the “Residual activity (4 weeks at 40° C.)” value stood at 43%.

As to `[Ca+2].[Cl-].[Cl-]` [Calcium Chloride], the “Residual activity (4 weeks at 40° C.)” value turned out to be 22%.

For the compound `[Cl-].[Cl-].[Mg+2]` [Magnesium Chloride], the “Residual activity (4 weeks at 40° C.)” value is 79%.

For `O=[N+]([O-])[O-].O=[N+]([O-])[O-].[Mg+2]` [Magnesium Nitrate], the “Residual activity (4 weeks at 40° C.)” value turned out to be 55%.

As for `O=S(=O)([O-])[O-].[Mg+2]` [Magnesium Sulfate], the “Residual activity (4 weeks at 40° C.)” value came out at 37%.

Take `[Cl-].[K+]` [Potassium Chloride]: the “Residual activity (4 weeks at 40° C.)” value came out at 34%.

Regarding `CC(=O)[O-].[Na+]` [Sodium Acetate], the “Residual activity (4 weeks at 40° C.)” value came out at 20%.

For `O=C([O-])[O-].[Na+].[Na+]` [Sodium Carbonate], the “Residual activity (4 weeks at 40° C.)” value is 15%.

With `[Cl-].[Na+]` [Sodium Chloride], the “Residual activity (4 weeks at 40° C.)” value is listed as 32%.

As to `O=C([O-])CC(O)(CC(=O)[O-])C(=O)[O-].[Na+].[Na+].[Na+]` [Sodium Citrate], the “Residual activity (4 weeks at 40° C.)” value was determined as 1%.

Regarding `O=C[O-].[Na+]` [Sodium Formiate], the “Residual activity (4 weeks at 40° C.)” value came out at 29%.

Take `O=[N+]([O-])[O-].[Na+]` [Sodium Nitrate]: the “Residual activity (4 weeks at 40° C.)” value worked out at 20%.

Consider `O=P(O)(O)O` [Sodium Phosphate], for which the “Residual activity (4 weeks at 40° C.)” value came out at 13%.

Consider `O=S(=O)([O-])[O-].[Na+].[Na+]` [Sodium Sulfate], for which the “Residual activity (4 weeks at 40° C.)” value is listed as 22%.

Take `[Cl-].[Cl-].[Zn+2]` [Zink Chloride]: the “Residual activity (2 weeks at 40° C.)” value turned out to be 102%.

`O=S(=O)([O-])[O-].[Zn+2]` [Zink Sulfate]: the “Residual activity (2 weeks at 40° C.)” value stood at 88%.
